Reference: patent US20090030024A1, “THIAZOLES AS FUNGICIDES” (priority 2005, published 2009)

Experiment: logP determination by retention times (calibration with alkan-2-ones)
Details: * HPLC reversed-phase C18, 40° C., mobile phase 0.1% aqueous formic acid and acetonitrile, linear gradient 10% to 95% acetonitrile

With `COCc1nc(C)c(-c2ccnc(Nc3ccc(O)cc3)n2)s1` [Example 763, 4-({4-[2-(methoxymethyl)-4-methyl-1,3-thiazol-5-yl]pyrimidin-2-yl}amino)phenol] as the molecule, how does the chromatographic logP read?
Its chromatographic logP is 1.8.

With `COCc1nc(C)c(-c2ccnc(Nc3cc(OC)cc(OC)c3)n2)s1` [Example 764, N-(3,5-dimethoxyphenyl)-4-[2-(methoxymethyl)-4-methyl-1,3-thiazol-5-yl]pyrimidine-2-amine] as the molecule, how does the chromatographic logP read?
Its chromatographic logP is 2.73.

Which chromatographic logP does the source give for `COCCCOC(=O)c1ccc(Nc2nccc(-c3sc(COC)nc3C)n2)cc1` [Example 765, 3-methoxypropyl-4-({4-[2-(methoxymethyl)-4-methyl-1,3-thiazol-5-yl]pyrimidin-2-yl}amino)benzoate] here?
Its chromatographic logP is 2.63.

For `CCCc1nc(C)c(-c2ccnc(Nc3ccccc3)n2)s1` [Example 766, 4-(4-methyl-2-propyl-1,3-thiazol-5-yl)-N-phenylpyrimidine-2-amine], which chromatographic logP is on record?
Its chromatographic logP is 3.49.

With `CCCc1nc(C)c(-c2ccnc(Nc3cccc(C(C)=O)c3)n2)s1` [Example 767, 1-(3-{[4-(4-methyl-2-propyl-1,3-thiazol-5-yl)pyrimidin-2-yl]amino}phenyl)ethanone] as the molecule, how does the chromatographic logP read?
The chromatographic logP was 3.04.

Which chromatographic logP does the source give for `CCCc1nc(C)c(-c2ccnc(Nc3cc(OC)c(OC)c(OC)c3)n2)s1` [Example 768, 4-(4-methyl-2-propyl-1,3-thiazol-5-yl)-N-(3,4,5-trimethoxyphenyl)pyrimidine-2-amine] here?
The chromatographic logP was 2.93.

Which logP does the source give for `CC(=O)c1ccc(Nc2nccc(-c3sc(N(C)C)nc3C(F)(F)F)n2)cc1` [Example 769, 1-[4-({4-[2-(dimethylamine)-4-(trifluoromethyl)-1,3-thiazol-5-yl]pyrimidin-2-yl}amino)phenyl]ethanone] here?
The logP was 3.44*.

With `CN(C)c1nc(C(F)(F)F)c(-c2ccnc(Nc3ccc(N4CCCC4=O)cc3)n2)s1` [Example 770, 1-[4-({4-[2-(dimethylamine)-4-(trifluoromethyl)-1,3-thiazol-5-yl]pyrimidin-2-yl}amino)phenyl]pyrrolidin-2-one] as the molecule, how does the logP read?
The logP was 2.99*.

For `COCC(C)Nc1nc(C)c(-c2ccnc(Nc3cccc(N4CCCC4=O)c3)n2)s1` (centres unmarked) [Example 772, 1-{3-[(4-{2-[(2-methoxy-1-methylethyl)amino]-4-methyl-1,3-thiazol-5-yl}pyrimidin-2-yl)amino]phenyl}pyrrolidin-2-one], which chromatographic logP is on record?
The chromatographic logP was 1.68.

For `Cc1nc(N(C)C)sc1-c1ccnc(Nc2ccc3c(c2)OC(F)(F)C(F)(F)O3)n1` [Example 774, 4-[2-(dimethylamine)-4-methyl-1,3-thiazol-5-yl]-N-(2,2,3,3-tetrafluoro-2,3-dihydro-1,4-benzodioxin-6-yl)pyrimidine-2-amine], which logP is on record?
The logP was 3.6*.

With `CN(C)c1nc(C(F)(F)F)c(-c2ccnc(Nc3cccc(N4CCCC4=O)c3)n2)s1` [Example 775, 1-[3-({4-[2-(dimethylamine)-4-(trifluoromethyl)-1,3-thiazol-5-yl]pyrimidin-2-yl}amino)phenyl]pyrrolidin-2-one] as the molecule, how does the logP read?
The logP was 3.07*.

Which logP does the source give for `CN(C)c1nc(C(F)(F)F)c(-c2ccnc(Nc3ccc(F)cc3)n2)s1` [Example 777, 4-[2-(dimethylamine)-4-(trifluoromethyl)-1,3-thiazol-5-yl]-N-(4-fluorophenyl)pyrimidine-2-amine] here?
The logP was 3.96*.

Which logP does the source give for `CN(C)c1nc(C(F)(F)F)c(-c2ccnc(Nc3ccc(I)cc3)n2)s1` [Example 778, 4-[2-(dimethylamine)-4-(trifluoromethyl)-1,3-thiazol-5-yl]-N-(4-iodophenyl)pyrimidine-2-amine] here?
The logP was 4.88*.

With `CN(C)c1nc(C(F)(F)F)c(-c2ccnc(Nc3ccc4c(c3)OC(F)(F)O4)n2)s1` [Example 779, N-(2,2-difluoro-1,3-benzodioxol-5-yl)-4-[2-(dimethylamine)-4-(trifluoromethyl)-1,3-thiazol-5-yl]pyrimidine-2-amine] as the molecule, how does the logP read?
The logP was 4.72*.

Which logP does the source give for `CN(C)c1nc(C(F)(F)F)c(-c2ccnc(Nc3ccc4c(c3)OC(F)(F)C(F)(F)O4)n2)s1` [Example 780, 4-[2-(dimethylamine)-4-(trifluoromethyl)-1,3-thiazol-5-yl]-N-(2,2,3,3-tetrafluoro-2,3-dihydro-1,4-benzodioxin-6-yl)pyrimidine-2-amine] here?
Its logP is 5.28*.

Which chromatographic logP does the source give for `COCCNc1nc(C)c(-c2ccnc(Nc3cccc([N+](=O)[O-])c3)n2)s1` [Example 781, 4-{2-[(2-methoxyethyl)amino]-4-methyl-1,3-thiazol-5-yl}-N-(3-nitrophenyl)pyrimidine-2-amine] here?
Its chromatographic logP is 1.97.

Which logP does the source give for `Cc1nc(N(C)C)sc1-c1ccnc(Nc2cccc(N3CCCC3=O)c2)n1` [Example 782, 1-[3-({4-[2-(dimethylamine)-4-methyl-1,3-thiazol-5-yl]pyrimidin-2-yl}amino)phenyl]pyrrolidin-2-one] here?
The logP was 1.65*.

For `COc1ccc(Nc2nccc(-c3sc(N(C)C)nc3C(F)(F)F)n2)cn1` [Example 783, 4-[2-(dimethylamine)-4-(trifluoromethyl)-1,3-thiazol-5-yl]-N-(6-methoxypyridin-3-yl)pyrimidine-2-amine], which logP is on record?
The logP was 3.17*.

For `COCCNc1nc(C)c(-c2ccnc(Nc3ccc(OC)nc3)n2)s1` [Example 784, 4-{2-[(2-methoxyethyl)amino]-4-methyl-1,3-thiazol-5-yl}-N-(6-methoxypyridin-3-yl)pyrimidine-2-amine], which chromatographic logP is on record?
The chromatographic logP was 1.45.

For `COc1ccc(Nc2nccc(-c3sc(N(C)C)nc3C)n2)cn1` [Example 785, 4-[2-(dimethylamine)-4-methyl-1,3-thiazol-5-yl]-N-(6-methoxypyridin-3-yl)pyrimidine-2-amine], which logP is on record?
The logP was 1.55*.

For `COc1cc(Nc2nccc(-c3cnc(-c4ccccc4)s3)n2)cc(OC)c1OC` [Example 786, 4-(2-phenyl-1,3-thiazol-5-yl)-N-(3,4,5-trimethoxyphenyl)pyrimidine-2-amine], which chromatographic logP is on record?
Its chromatographic logP is 3.37.

Which chromatographic logP does the source give for `c1ccc(Nc2nccc(-c3cnc(-c4ccccc4)s3)n2)cc1` [Example 787, N-phenyl-4-(2-phenyl-1,3-thiazol-5-yl)pyrimidine-2-amine] here?
The chromatographic logP was 3.97.

Which chromatographic logP does the source give for `COc1ccc(Nc2nccc(-c3sc(C)nc3C)n2)cc1` [Example 788, 4-(2,4-dimethyl-1,3-thiazol-5-yl)-N-(4-methoxyphenyl)pyrimidine-2-amine] here?
Its chromatographic logP is 2.34.

With `CCc1nc(C)c(-c2ccnc(Nc3ccc(OC)cc3)n2)s1` [Example 789, 4-(2-ethyl-4-methyl-1,3-thiazol-5-yl)-N-(4-methoxyphenyl)pyrimidine-2-amine] as the molecule, how does the chromatographic logP read?
Its chromatographic logP is 2.78.

With `COc1ccc(Nc2nccc(-c3sc(C)nc3C)n2)cc1O` [Example 790, 5-{[4-(2,4-dimethyl-1,3-thiazol-5-yl)pyrimidin-2-yl]amino}-2-methoxyphenol] as the molecule, how does the chromatographic logP read?
Its chromatographic logP is 1.79.

Which chromatographic logP does the source give for `CCc1nc(C)c(-c2ccnc(Nc3ccc(OC)c(O)c3)n2)s1` [Example 791, 5-{[4-(2-ethyl-4-methyl-1,3-thiazol-5-yl)pyrimidin-2-yl]amino}-2-methoxyphenol] here?
Its chromatographic logP is 2.09.

Which chromatographic logP does the source give for `COc1cc(Nc2nccc(-c3cnc(-c4ccc(Cl)cc4)s3)n2)cc(OC)c1OC` [Example 792, 4-[2-(4-chlorophenyl)-1,3-thiazol-5-yl]-N-(3,4,5-trimethoxyphenyl)pyrimidine-2-amine] here?
Its chromatographic logP is 4.12.

For `Clc1ccc(-c2ncc(-c3ccnc(Nc4ccccc4)n3)s2)cc1` [Example 793, 4-[2-(4-chlorophenyl)-1,3-thiazol-5-yl]-N-phenylpyrimidine-2-amine], which chromatographic logP is on record?
Its chromatographic logP is 4.85.

For `CCc1nc(C)c(-c2ccnc(Nc3ccc(Cl)cc3Cl)n2)s1` [Example 794, N-(2,4-dichlorophenyl)-4-(2-ethyl-4-methyl-1,3-thiazol-5-yl)pyrimidine-2-amine], which chromatographic logP is on record?
The chromatographic logP was 4.9.

Which chromatographic logP does the source give for `Clc1ccc(-c2ncc(-c3ccnc(Nc4cccc(Cl)c4)n3)s2)cc1` [Example 795, N-(3-chlorophenyl)-4-[2-(4-chlorophenyl)-1,3-thiazol-5-yl]pyrimidine-2-amine] here?
The chromatographic logP was 5.57.

For `CCOC(=O)Nc1ccc(Nc2nccc(-c3sc(C(C)C)nc3C)n2)cc1` [Example 796, ethyl-(4-{[4-(2-isopropyl-4-methyl-1,3-thiazol-5-yl)pyrimidin-2-yl]amino}phenyl)carbamate], which chromatographic logP is on record?
The chromatographic logP was 2.18.

For `COCCNc1nc(C)c(-c2ccnc(Nc3ccc(OC)c(OC)c3)n2)s1` [Example 800, N-(3,4-dimethoxyphenyl)-4-{2-[(2-methoxyethyl)amino]-4-methyl-1,3-thiazol-5-yl}pyrimidine-2-amine], which chromatographic logP is on record?
The chromatographic logP was 1.55.

Which chromatographic logP does the source give for `COCCNc1nc(C)c(-c2ccnc(Nc3cc(OC)cc(OC)c3)n2)s1` [Example 801, N-(3,5-dimethoxyphenyl)-4-{2-[(2-methoxyethyl)amino]-4-methyl-1,3-thiazol-5-yl}pyrimidine-2-amine] here?
Its chromatographic logP is 1.96.

Which chromatographic logP does the source give for `COCCNc1nc(C)c(-c2ccnc(Nc3ccc4c(c3)OCO4)n2)s1` [Example 802, N-1,3-benzodioxol-5-yl-4-{2-[(2-methoxyethyl)amino]-4-methyl-1,3-thiazol-5-yl}pyrimidine-2-amine] here?
Its chromatographic logP is 1.65.

For `COCCNc1nc(C)c(-c2ccnc(Nc3ccc4c(c3)OCCO4)n2)s1` [Example 803, N-(2,3-dihydro-1,4-benzodioxin-6-yl)-4-{2-[(2-methoxyethyl)amino]-4-methyl-1,3-thiazol-5-yl}pyrimidine-2-amine], which chromatographic logP is on record?
Its chromatographic logP is 1.63.

With `COCCNc1nc(C)c(-c2ccnc(Nc3ccc(OC)c(Cl)c3)n2)s1` [Example 804, N-(3-chloro-4-methoxyphenyl)-4-{2-[(2-methoxyethyl)amino]-4-methyl-1,3-thiazol-5-yl}pyrimidine-2-amine] as the molecule, how does the chromatographic logP read?
The chromatographic logP was 1.96.

With `COCCNc1nc(C)c(-c2ccnc(Nc3ccc(N(C)C)c(Cl)c3)n2)s1` [Example 805, 2-chloro-N4-(4-{2-[(2-methoxyethyl)amino]-4-methyl-1,3-thiazol-5-yl}pyrimidin-2-yl)-N1,N1-dimethylbenzene-1,4-diamine] as the molecule, how does the chromatographic logP read?
The chromatographic logP was 1.57.

For `COCCNc1nc(C)c(-c2ccnc(Nc3ccc(C)c([N+](=O)[O-])c3)n2)s1` [Example 806, 4-{2-[(2-methoxyethyl)amino]-4-methyl-1,3-thiazol-5-yl}-N-(4-methyl-3-nitrophenyl)pyrimidine-2-amine], which chromatographic logP is on record?
The chromatographic logP was 2.17.
